The values below come from PMC8515367 (ACS Omega, 2021).

Assay [1] concerns T113V mutants of ecDHFR. Conditions: cited from earlier work.
Assay [2] concerns the target T1, wildtype ecDHFR (Escherichia coli, UniProt P0ABQ4).
T1 sequence (P0ABQ4 1-159): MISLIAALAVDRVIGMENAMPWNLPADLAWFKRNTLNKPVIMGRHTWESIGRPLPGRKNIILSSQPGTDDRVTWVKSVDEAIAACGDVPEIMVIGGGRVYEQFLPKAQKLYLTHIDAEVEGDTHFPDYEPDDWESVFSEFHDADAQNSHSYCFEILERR
The assay is described as follows: Ligand-binding assay, tryptophan fluorescence titration.

In assay [3] the target is T2, M42F-ecDHFR (Escherichia coli, UniProt P0ABQ4, M42F).
T2 sequence (P0ABQ4 1-159 M42F): T1 sequence (P0ABQ4 1-159) with M42F
The assay is described as above.

Assay [4] concerns the target T3, T113V-ecDHFR (Escherichia coli, UniProt P0ABQ4, T113V).
T3 sequence (P0ABQ4 1-159 T113V): T1 sequence (P0ABQ4 1-159) with T113V
The description is as above.

In assay [5] the target is T4, G121S-ecDHFR (Escherichia coli, UniProt P0ABQ4, G121S).
T4 sequence (P0ABQ4 1-159 G121S): T1 sequence (P0ABQ4 1-159) with G121S
Described as above.

The target in assay [6] is T5, G121V-ecDHFR (Escherichia coli, UniProt P0ABQ4, G121V).
T5 sequence (P0ABQ4 1-159 G121V): T1 sequence (P0ABQ4 1-159) with G121V
The description is as above.

Assay [7] concerns the target T6, M42F/G121S-ecDHFR (Escherichia coli, UniProt P0ABQ4, G121S/M42F).
T6 sequence (P0ABQ4 1-159 M42F/G121S): T1 sequence (P0ABQ4 1-159) with M42F, G121S
The description is as above.

Assay [8] concerns the target T7, M42F/G121V-ecDHFR (Escherichia coli, UniProt P0ABQ4, G121V/M42F).
T7 sequence (P0ABQ4 1-159 M42F/G121V): T1 sequence (P0ABQ4 1-159) with M42F, G121V
The description is as above.

The target in assay [9] is T8, T113V/G121S-ecDHFR (Escherichia coli, UniProt P0ABQ4, G121S/T113V).
T8 sequence (P0ABQ4 1-159 T113V/G121S): T1 sequence (P0ABQ4 1-159) with T113V, G121S
Described as above.

In assay [10] the target is T9, T113V/G121V-ecDHFR (Escherichia coli, UniProt P0ABQ4, G121V/T113V).
T9 sequence (P0ABQ4 1-159 T113V/G121V): T1 sequence (P0ABQ4 1-159) with T113V, G121V
Described as above.

In assay [11] the target is T6, M42F/G121S-ecDHFR. Nature of the assay: Double-mutant cycle analysis of ligand binding. Conditions: A′ = M42F, B′ = G121S.
Assay [12] concerns the target T7, M42F/G121V-ecDHFR. Nature of the assay: Double-mutant cycle analysis of ligand binding. Conditions: A′ = M42F, B′ = G121V.
The target in assay [13] is T8, T113V/G121S-ecDHFR. Nature of the assay: Double-mutant cycle analysis of ligand binding. Conditions: A′ = T113V, B′ = G121S.
The target of assay [14] is T9, T113V/G121V-ecDHFR. The assay is described as follows: Double-mutant cycle analysis of ligand binding. Conditions: A′ = T113V, B′ = G121V.
The target of assay [15] is T1, wildtype ecDHFR. Conditions: read-out: KD^NADPH, previous reports; cited from earlier work.
Assay [16] has as its target T4, G121S-ecDHFR. Conditions: cited from earlier work.
The target of assay [17] is T5, G121V-ecDHFR. Conditions: cited from earlier work.

Each structure is given as a SMILES string. Positions count from the first letter of the chain named. Values joined by “and” are separate entries in the source; they are usually repeats but may differ in a detail not shown here. Equal entries are not always repeated. Where two headings read alike, the source gives them in different places.

As to `Nc1nc(=O)c2c([nH]1)NCC(CNc1ccc(C(=O)N[C@@H](CCC(=O)O)C(=O)O)cc1)=N2` [H2F, 7,8-dihydrofolate], in assay [1], the “decrease in H2F-binding affinity” value is listed as 20–30 fold.

Turning to `NC(=O)C1=CN([C@@H]2O[C@H](COP(=O)(O)OP(=O)(O)OC[C@H]3O[C@@H](n4cnc5c(N)ncnc54)[C@H](OP(=O)(O)O)[C@@H]3O)[C@@H](O)[C@H]2O)C=CC1` [NADPH, nicotinamide adenine dinucleotide phosphate], the dissociation constant (Kd) in assay [2] (KD^NADPH, 5 μM ecDHFR, ΔF340nm analysis, fitted up to 100 μM NADPH) worked out at 1.23 ± 0.06 µM; in assay [3] it was 33.6 ± 2.67 µM; in assay [4], 13.7 ± 1.82 µM; in [5] it was 9.73 ± 2.4 µM; in [6], 12.2 ± 1.41 µM; in [7] it was 116 ± 20.1 µM. Moreover, the dissociation constant Kd in [8] is 74 ± 9.09 µM; in assay [9], 77.5 ± 19.2 µM; in assay [10], 137 ± 1.94 µM; in assay [15] it was 0.34 µM and 0.44 µM. In addition, the “KD^NADPH weaker than previous reports” value in assay [2] (versus 0.34 and […]) is reported as 3∼4 fold. Moreover, the ΔG1 in [11] was found to be 8.20 kcal/mol; in assay [12], 8.20 kcal/mol; in assay [13], 5.98 kcal/mol; in [14] it was 5.98 kcal/mol. The ΔG2 in [11] came to 5.12 kcal/mol; in assay [12] it was 5.69 kcal/mol; in [13] it was 5.12 kcal/mol; in assay [14], 5.69 kcal/mol. Further, the “ΔG′1” value was found to be 6.13 kcal/mol in assay [11], 4.45 kcal/mol in assay [12], 5.19 kcal/mol in assay [13] and 5.99 kcal/mol in [14]. For the same molecule, the “ΔG′2” value in [11] stood at 3.06 kcal/mol; in assay [12], 1.95 kcal/mol; in assay [13] it was 4.33 kcal/mol; in [14] it was 5.71 kcal/mol. Moreover, the ΔΔG entry is “–2.06 kcal/mole” in assay [11], “–3.75 kcal/mole” in assay [12], “–0.79 kcal/mole” in [13] and 0.02 kcal/mol in assay [14]. Further, the NADPH binding weakened in [16] was 10 fold; in [17], 40 fold.

As a reminder, the Kd is the concentration at which binding is half-saturated.
